Test results taken from ChEMBL document CHEMBL5038625, “Application of the dual-tail approach for the design and synthesis of novel Thiopyrimidine-Benzenesulfonamide hybrids as selective carbonic anhydrase inhibitors” (Eur J Med Chem, 2022).
One block for each compound: values may come before it.

Legend:
OVCAR-3 = assay: Antiproliferative activity against human OVCAR-3 cells assessed as cell growth inhibition at 10 uM incubated for 24 hrs by sulforhodamine B assay; format: functional; conditions: read-out: GI
NCI-H23 = assay: Antiproliferative activity against human NCI-H23 cells assessed as cell growth inhibition at 10 uM incubated for 24 hrs by sulforhodamine B assay; format: functional; conditions: read-out: GI
Carbonic anhydrase 9 = Carbonic anhydrase 9 (Homo sapiens, UniProt Q16790); assay: Inhibition of human CA9 preincubated for 15 mins by phenol red dye based stopped flow CO2 hydration assay
HOP-92 = assay: Antiproliferative activity against human HOP-92 cells assessed as cell growth inhibition at 10 uM incubated for 24 hrs by sulforhodamine B assay; format: functional; conditions: read-out: GI
UACC-62 = assay: Antiproliferative activity against human UACC-62 cells assessed as cell growth inhibition at 10 uM incubated for 24 hrs by sulforhodamine B assay; format: functional; conditions: read-out: GI
NCI-H226 = assay: Antiproliferative activity against human NCI-H226 cells assessed as cell growth inhibition at 10 uM incubated for 24 hrs by sulforhodamine B assay; format: functional; conditions: read-out: GI
MCF7 = assay: Antiproliferative activity against human MCF7 cells assessed as cell growth inhibition at 10 uM incubated for 24 hrs by sulforhodamine B assay; format: functional; conditions: read-out: GI
UO-31 = assay: Antiproliferative activity against human UO-31 cells assessed as cell growth inhibition at 10 uM incubated for 24 hrs by sulforhodamine B assay; format: functional; conditions: read-out: GI
SF-539 = assay: Antiproliferative activity against human SF-539 cells assessed as cell growth inhibition at 10 uM incubated for 24 hrs by sulforhodamine B assay; format: functional; conditions: read-out: GI
CAKI-1 = assay: Antiproliferative activity against human CAKI-1 cells assessed as cell growth inhibition at 10 uM incubated for 24 hrs by sulforhodamine B assay; format: functional; conditions: read-out: GI
RXF 393 = assay: Antiproliferative activity against human RXF 393 cells assessed as cell growth inhibition at 10 uM incubated for 24 hrs by sulforhodamine B assay; format: functional; conditions: read-out: GI
HCT-15 = assay: Antiproliferative activity against human HCT-15 cells assessed as cell growth inhibition at 10 uM incubated for 24 hrs by sulforhodamine B assay; format: functional; conditions: read-out: GI
ACHN = assay: Antiproliferative activity against human ACHN cells assessed as cell growth inhibition at 10 uM incubated for 24 hrs by sulforhodamine B assay; format: functional; conditions: read-out: GI
HL-60 = assay: Antiproliferative activity against human HL-60 cells assessed as cell growth inhibition at 10 uM incubated for 24 hrs by sulforhodamine B assay; format: functional; conditions: read-out: GI
K562 = assay: Antiproliferative activity against human K562 cells assessed as cell growth inhibition at 10 uM incubated for 24 hrs by sulforhodamine B assay; format: functional; conditions: read-out: GI
MDA-MB-231 = assay: Antiproliferative activity against human MDA-MB-231 cells assessed as cell growth inhibition at 10 uM incubated for 24 hrs by sulforhodamine B assay; format: functional; conditions: read-out: GI
EKVX = assay: Antiproliferative activity against human EKVX cells assessed as cell growth inhibition at 10 uM incubated for 24 hrs by sulforhodamine B assay; format: functional; conditions: read-out: GI
SW-620 = assay: Antiproliferative activity against human SW-620 cells assessed as cell growth inhibition at 10 uM incubated for 24 hrs by sulforhodamine B assay; format: functional; conditions: read-out: GI
SNB-75 = assay: Antiproliferative activity against human SNB-75 cells assessed as cell growth inhibition at 10 uM incubated for 24 hrs by sulforhodamine B assay; format: functional; conditions: read-out: GI
KM12 = assay: Antiproliferative activity against human KM12 cells assessed as cell growth inhibition at 10 uM incubated for 24 hrs by sulforhodamine B assay; format: functional; conditions: read-out: GI
SNB-19 = assay: Antiproliferative activity against human SNB-19 cells assessed as cell growth inhibition at 10 uM incubated for 24 hrs by sulforhodamine B assay; format: functional; conditions: read-out: GI
IGROV-1 = assay: Antiproliferative activity against human IGROV-1 cells assessed as cell growth inhibition at 10 uM incubated for 24 hrs by sulforhodamine B assay; format: functional; conditions: read-out: GI
HCT-116 = assay: Antiproliferative activity against human HCT-116 cells assessed as cell growth inhibition at 10 uM incubated for 24 hrs by sulforhodamine B assay; format: functional; conditions: read-out: GI
Hs-578T = assay: Antiproliferative activity against human HS-578T cells assessed as cell growth inhibition at 10 uM incubated for 24 hrs by sulforhodamine B assay; format: functional; conditions: read-out: GI
CCRF-CEM = assay: Antiproliferative activity against human CCRF-CEM cells assessed as cell growth inhibition at 10 uM incubated for 24 hrs by sulforhodamine B assay; format: functional; conditions: read-out: GI
COLO 205 = assay: Antiproliferative activity against human COLO 205 cells assessed as cell growth inhibition at 10 uM incubated for 24 hrs by sulforhodamine B assay; format: functional; conditions: read-out: GI
RPMI-8226 = assay: Antiproliferative activity against human RPMI-8226 cells assessed as cell growth inhibition at 10 uM incubated for 24 hrs by sulforhodamine B assay; format: functional; conditions: read-out: GI
OVCAR-8 = assay: Antiproliferative activity against human OVCAR-8 cells assessed as cell growth inhibition at 10 uM incubated for 24 hrs by sulforhodamine B assay; format: functional; conditions: read-out: GI
MOLT-4 = assay: Antiproliferative activity against human MOLT-4 cells assessed as cell growth inhibition at 10 uM incubated for 24 hrs by sulforhodamine B assay; format: functional; conditions: read-out: GI
DU-145 = assay: Antiproliferative activity against human DU-145 cells assessed as cell growth inhibition at 10 uM incubated for 24 hrs by sulforhodamine B assay; format: functional; conditions: read-out: GI
U-251 = assay: Antiproliferative activity against human U-251 cells assessed as cell growth inhibition at 10 uM incubated for 24 hrs by sulforhodamine B assay; format: functional; conditions: read-out: GI
LOX IMVI = assay: Antiproliferative activity against human LOX IMVI cells assessed as cell growth inhibition at 10 uM incubated for 24 hrs by sulforhodamine B assay; format: functional; conditions: read-out: GI
M14 = assay: Antiproliferative activity against human M14 cells assessed as cell growth inhibition at 10 uM incubated for 24 hrs by sulforhodamine B assay; format: functional; conditions: read-out: GI
SN12C = assay: Antiproliferative activity against human SN12C cells assessed as cell growth inhibition at 10 uM incubated for 24 hrs by sulforhodamine B assay; format: functional; conditions: read-out: GI
NCI/ADR-RES = assay: Antiproliferative activity against human NCI-ADR-RES cells assessed as cell growth inhibition at 10 uM incubated for 24 hrs by sulforhodamine B assay; format: functional; conditions: read-out: GI
SR = assay: Antiproliferative activity against human SR cells assessed as cell growth inhibition at 10 uM incubated for 24 hrs by sulforhodamine B assay; format: functional; conditions: read-out: GI
SF-268 = assay: Antiproliferative activity against human SF-268 cells assessed as cell growth inhibition at 10 uM incubated for 24 hrs by sulforhodamine B assay; format: functional; conditions: read-out: GI
SK-MEL-5 = assay: Antiproliferative activity against human SK-MEL-5 cells assessed as cell growth inhibition at 10 uM incubated for 24 hrs by sulforhodamine B assay; format: functional; conditions: read-out: GI
PC-3 = assay: Antiproliferative activity against human PC-3 cells assessed as cell growth inhibition at 10 uM incubated for 24 hrs by sulforhodamine B assay; format: functional; conditions: read-out: GI
A549 = assay: Antiproliferative activity against human A549 cells assessed as cell growth inhibition at 10 uM incubated for 24 hrs by sulforhodamine B assay; format: functional; conditions: read-out: GI
NCI-H522 = assay: Antiproliferative activity against human NCI-H522 cells assessed as cell growth inhibition at 10 uM incubated for 24 hrs by sulforhodamine B assay; format: functional; conditions: read-out: GI
OVCAR-4 = assay: Antiproliferative activity against human OVCAR-4 cells assessed as cell growth inhibition at 10 uM incubated for 24 hrs by sulforhodamine B assay; format: functional; conditions: read-out: GI
NCI-H460 = assay: Antiproliferative activity against human NCI-H460 cells assessed as cell growth inhibition at 10 uM incubated for 24 hrs by sulforhodamine B assay; format: functional; conditions: read-out: GI
MDA-MB-468 = assay: Antiproliferative activity against human MDA-MB-468 cells assessed as cell growth inhibition at 10 uM incubated for 24 hrs by sulforhodamine B assay; format: functional; conditions: read-out: GI
MDA-MB-435 = assay: Antiproliferative activity against human MDA-MB-435 cells assessed as cell growth inhibition at 10 uM incubated for 24 hrs by sulforhodamine B assay; format: functional; conditions: read-out: GI
[1] = Antiproliferative activity against human […] cells assessed as cell growth inhibition at 10 uM incubated for 24 hrs by sulforhodamine B assay; format: functional; conditions: read-out: GI
A498 = assay: Antiproliferative activity against human A498 cells assessed as cell growth inhibition at 10 uM incubated for 24 hrs by sulforhodamine B assay; format: functional; conditions: read-out: GI
SF-295 = assay: Antiproliferative activity against human SF-295 cells assessed as cell growth inhibition at 10 uM incubated for 24 hrs by sulforhodamine B assay; format: functional; conditions: read-out: GI
T47D = assay: Antiproliferative activity against human T47D cells assessed as cell growth inhibition at 10 uM incubated for 24 hrs by sulforhodamine B assay; format: functional; conditions: read-out: GI
HT-29 = assay: Antiproliferative activity against human HT-29 cells assessed as cell growth inhibition at 10 uM incubated for 24 hrs by sulforhodamine B assay; format: functional; conditions: read-out: GI

Ki (Carbonic anhydrase 9): 97.4 nM
SMILES: CC(C)c1nc(SCC(=O)c2ccc(Br)cc2)nc(Nc2cccc(S(N)(=O)=O)c2)c1C#N
inhibition of growth at 10 µM (OVCAR-3): 6.91%
inhibition of growth at 10 µM (NCI-H23): 5.54%
inhibition of growth at 10 µM (HOP-92): 15%
inhibition of growth at 10 µM (UACC-62): 8.44%
inhibition of growth at 10 µM (NCI-H226): 6.88%
inhibition of growth at 10 µM (MCF7): 12.4%
inhibition of growth at 10 µM (UO-31): 20.9%
inhibition of growth at 10 µM (SF-539): 5.74%
inhibition of growth at 10 µM (CAKI-1): 12.7%
inhibition of growth at 10 µM (RXF 393): 8.85%

Ki (Carbonic anhydrase 9): 60.1 nM
SMILES: COc1ccc(OC)c(-c2nc(SCC(=O)c3ccc(Br)cc3)nc(Nc3cccc(S(N)(=O)=O)c3)c2C#N)c1
inhibition of growth at 10 µM (OVCAR-3): 22.4%
inhibition of growth at 10 µM (NCI-H23): 7.31%
inhibition of growth at 10 µM (HCT-15): 23.4%
inhibition of growth at 10 µM (ACHN): 20.2%
inhibition of growth at 10 µM (HL-60): 10.3%
inhibition of growth at 10 µM (K562): 29.5%
inhibition of growth at 10 µM (MDA-MB-231): 23.8%
inhibition of growth at 10 µM (EKVX): 18.4%
inhibition of growth at 10 µM (SW-620): 13.9%
inhibition of growth at 10 µM (SNB-75): 23.1%
inhibition of growth at 10 µM (KM12): 11.8%
inhibition of growth at 10 µM (SNB-19): 16.4%
inhibition of growth at 10 µM (IGROV-1): 8.33%
inhibition of growth at 10 µM (HCT-116): 27.9%
inhibition of growth at 10 µM (Hs-578T): 25.5%
inhibition of growth at 10 µM (CCRF-CEM): 20.1%
inhibition of growth at 10 µM (COLO 205): 14.6%
inhibition of growth at 10 µM (RPMI-8226): 18.5%
inhibition of growth at 10 µM (OVCAR-8): 14.2%
inhibition of growth at 10 µM (MOLT-4): 45.3%
inhibition of growth at 10 µM (UACC-62): 11.6%
inhibition of growth at 10 µM (NCI-H226): 15.2%
inhibition of growth at 10 µM (DU-145): 12.9%
inhibition of growth at 10 µM (U-251): 19.1%
inhibition of growth at 10 µM (MCF7): 28.6%
inhibition of growth at 10 µM (LOX IMVI): 16.6%
inhibition of growth at 10 µM (M14): 6.53%
inhibition of growth at 10 µM (SN12C): 18.1%
inhibition of growth at 10 µM (UO-31): 50.2%
inhibition of growth at 10 µM (NCI/ADR-RES): 8.77%
inhibition of growth at 10 µM (SR): 30.5%
inhibition of growth at 10 µM (SF-539): 16.5%
inhibition of growth at 10 µM (SF-268): 23.7%
inhibition of growth at 10 µM (SK-MEL-5): 5.18%
inhibition of growth at 10 µM (PC-3): 34.1%
inhibition of growth at 10 µM (A549): 26.7%
inhibition of growth at 10 µM (NCI-H522): 5.79%
inhibition of growth at 10 µM (OVCAR-4): 24.1%
inhibition of growth at 10 µM (NCI-H460): 22.5%
inhibition of growth at 10 µM (MDA-MB-468): 15.4%
inhibition of growth at 10 µM (MDA-MB-435): 15.4%
inhibition of growth at 10 µM [1]: 14%
inhibition of growth at 10 µM (A498): 22.5%
inhibition of growth at 10 µM (SF-295): 13.3%
inhibition of growth at 10 µM (CAKI-1): 52.1%
inhibition of growth at 10 µM (RXF 393): 39.8%
inhibition of growth at 10 µM (T47D): 23.9%
inhibition of growth at 10 µM (HT-29): 9.87%
